Test results as given in patent US8343983B2, “Substituted pyrazolo-pyrimidine compounds” (ArQule, Inc., priority 2009, dated 2013).
Where two headings read alike, the source gives them in different places.

Tested on: cancer cells
Assay: MTS assay: inhibition of cell growth (formazan absorbance at 492 nm after 72 hours with test compound)
Assay type: cell-based
Conditions: inhibition class
How it was run: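 DMEM with 1% FBS; cells seeded at 3000/well and grown 18 h at 37 °C, then exposed to compound for 72 h and to MTS/PMS for 4 h. IC50 is the concentration giving a 50% absorbance drop; grades are % inhibition bands.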

[1] = Homo sapiens, DLD-1 cells, read-out: DLD-1, MTS 72 hours at 10 uM
[2] = Homo sapiens, KATO III cells, read-out: KATO III, MTS 72 hours at 10 uM
[3] = Homo sapiens, MDA-MB-231 cells, read-out: MDA-MB-231, MTS 72 hours at 10 uM
[4] = Homo sapiens, NCI-H1299 cells, read-out: NCI-H1299, MTS 72 hours at 10 uM
[5] = Homo sapiens, PC-3 cells, read-out: PC-3, MTS 72 hours at 10 uM
[6] = PACA-2 cells, read-out: PACA-2, MTS 72 hours at 10 uM

| Compound | inhibition at 10 µM [1] [%] | inhibition at 10 µM [2] [%] | inhibition at 10 µM [3] [%] | inhibition at 10 µM [4] [%] | inhibition at 10 µM [5] [%] | inhibition at 10 µM [6] [%] |
| --- | --- | --- | --- | --- | --- | --- |
| COc1ccc(CN2CCc3nn(Cc4ccccc4)c4nc(SC)nc2c34)cc1 [Compound 129, 2-benzyl-6-(4-methoxybenzyl)-4-(methylsulfanyl)-2,6,7,8-tetrahydro-1,2,3,5,6-pentaazaacenaphthylene] | < 50 | < 50 | < 50 | < 50 | < 50 | < 50 |
| COc1ccc(CN2CCc3nn(C)c4nc(SC)nc2c34)cc1 [Compound 130, 6-(4-methoxybenzyl)-2-methyl-4-(methylsulfanyl)-2,6,7,8-tetrahydro-1,2,3,5,6-pentaazaacenaphthylene] | < 50 | < 50 | < 50 | < 50 | < 50 | 50 to 79 |
| CSc1nc2c3c(nn(Cc4ccccc4)c3n1)CCN2Cc1ccccc1 [Compound 133, 2,6-dibenzyl-4-(methylsulfanyl)-2,6,7,8-tetrahydro-1,2,3,5,6-pentaazaacenaphthylene] | > 79 | > 79 | > 79 | > 79 | > 79 | > 79 |
| CSc1nc2c3c(nn(C)c3n1)CCN2Cc1ccccc1 [Compound 171, 6-benzyl-2-methyl-4-(methylsulfanyl)-2,6,7,8-tetrahydro-1,2,3,5,6-pentaazaacenaphthylene] | > 79 | > 79 | > 79 | 50 to 79 | > 79 | > 79 |
| COC(=O)Cn1nc2c3c(nc(SC)nc31)N(Cc1ccccc1)CC2 [Compound 172, methyl [6-benzyl-4-(methylsulfanyl)-7,8-dihydro-1,2,3,5,6-pentaazaacenaphthylen-2(6H)-yl]acetate] | 50 to 79 | < 50 | < 50 | < 50 | > 79 | > 79 |
| c1ccc(CNc2nc3c4c(n[nH]c4n2)CCN3c2ccccc2)cc1 [Compound 208, N-benzyl-6-phenyl-2,6,7,8-tetrahydro-1,2,3,5,6-pentaazaacenaphthylen-4-amine] | < 50 | < 50 | < 50 | < 50 | < 50 | < 50 |
| Clc1ccccc1CNc1nc2c3c(n[nH]c3n1)CCN2c1ccccc1 [Compound 209, N-(2-chlorobenzyl)-6-phenyl-2,6,7,8-tetrahydro-1,2,3,5,6-pentaazaacenaphthylen-4-amine] | < 50 | 50 to 79 | < 50 | < 50 | < 50 | < 50 |
| c1ccc(N2CCc3n[nH]c4nc(N5CCN(c6ccncc6)CC5)nc2c34)cc1 [Compound 210, 6-phenyl-4-(4-pyridin-4-ylpiperazin-1-yl)-2,6,7,8-tetrahydro-1,2,3,5,6-pentaazaacenaphthylene] | > 79 | > 79 | > 79 | > 79 | > 79 | > 79 |
| c1ccc(N2CCc3n[nH]c4nc(NC5CCCCC5)nc2c34)cc1 [Compound 211, N-cyclohexyl-6-phenyl-2,6,7,8-tetrahydro-1,2,3,5,6-pentaazaacenaphthylen-4-amine] | < 50 | < 50 | < 50 | < 50 | < 50 | < 50 |
| c1ccc(OCCNc2nc3c4c(n[nH]c4n2)CCN3c2ccccc2)cc1 [Compound 212, N-(4-phenoxyethyl)-6-phenyl-2,6,7,8-tetrahydro-1,2,3,5,6-pentaazaacenaphthylen-4-amine] | < 50 | < 50 | < 50 | < 50 | < 50 | < 50 |
| Clc1ccc(CNc2nc3c4c(n[nH]c4n2)CCN3c2ccccc2)cc1 [Compound 213, N-(4-chlorobenzyl)-6-phenyl-2,6,7,8-tetrahydro-1,2,3,5,6-pentaazaacenaphthylen-4-amine] | < 50 | < 50 | < 50 | 50 to 79 | < 50 | 50 to 79 |
| c1ccc(N2CCc3n[nH]c4nc(NCc5cccnc5)nc2c34)cc1 [Compound 214, 6-phenyl-N-(pyridin-3-ylmethyl)-2,6,7,8-tetrahydro-1,2,3,5,6-pentaazaacenaphthylen-4-amine] | 50 to 79 | 50 to 79 | < 50 | 50 to 79 | < 50 | 50 to 79 |
| c1ccc(N2CCc3n[nH]c4nc(NCCN5CCOCC5)nc2c34)cc1 [Compound 215, N-(2-morpholin-4-ylethyl)-6-phenyl-2,6,7,8-tetrahydro-1,2,3,5,6-pentaazaacenaphthylen-4-amine] | < 50 | < 50 | < 50 | < 50 | < 50 | < 50 |
| c1ccc(N2CCc3n[nH]c4nc(N5CCCC5)nc2c34)cc1 [Compound 216, 6-phenyl-4-pyrrolidin-1-yl-2,6,7,8-tetrahydro-1,2,3,5,6-pentaazaacenaphthylene] | < 50 | < 50 | < 50 | < 50 | < 50 | 50 to 79 |
| c1ccc(CN2CCN(c3nc4c5c(n[nH]c5n3)CCN4c3ccccc3)CC2)cc1 [Compound 217, 4-(4-benzylpiperazin-1-yl)-6-phenyl-2,6,7,8-tetrahydro-1,2,3,5,6-pentaazaacenaphthylene] | < 50 | < 50 | < 50 | < 50 | < 50 | < 50 |
| c1ccc(N2CCc3n[nH]c4nc(N5CCOCC5)nc2c34)cc1 [Compound 218, 4-morpholin-4-yl-6-phenyl-2,6,7,8-tetrahydro-1,2,3,5,6-pentaazaacenaphthylene] | < 50 | < 50 | < 50 | < 50 | < 50 | < 50 |
| CN1CCC(Nc2nc3c4c(n[nH]c4n2)CCN3c2ccccc2)CC1 [Compound 219, N-(1-methylpiperidin-4-yl)-6-phenyl-2,6,7,8-tetrahydro-1,2,3,5,6-pentaazaacenaphthylen-4-amine] | > 79 | > 79 | > 79 | 50 to 79 | > 79 | > 79 |
| c1ccc(CCNc2nc3c4c(n[nH]c4n2)CCN3c2ccccc2)cc1 [Compound 220, 6-phenyl-N-(2-phenylethyl)-2,6,7,8-tetrahydro-1,2,3,5,6-pentaazaacenaphthylen-4-amine] | > 79 | > 79 | 50 to 79 | 50 to 79 | 50 to 79 | > 79 |
